In experiment [1] the test system is Caco-2 cells. The experiment in a line: Cholesterol absorption inhibition assay (in vitro), [14C] cholesterol mixed micelles. The class given is cell-based. As to conditions: Homo sapiens, 24 hours, read-out: cholesterol absorption inhibitory activity; for inhibition at 10 µM: concentration of 10 μM; for inhibition at 12.5 µM: concentration of 12.5 μM. As to the method: This assay measures cholesterol absorption inhibitory activity by adding mixed micelles containing [^14C] cholesterol to cells and measuring cholesterol taken in the cells as oleic acid cholesteryl ester. The assay is conducted after Caco-2 cells are seeded on multi-well plates and cultured (culture medium: DMEM containing 10% fetal bovine serum, 1% non-essential amino acids, 1% penicillin, and 1% streptomycin) for 2 weeks. To each well, the micelle solution (in an amount required to provide the following final concentrations: 600 μM of sodium oleate, 50 μM of phosphatidyl choline, 5 mM of sodium taurocholate, 2.5 μM of cholesterol, and 2.5 μM of [^14C] cholesterol) and a test compound solution (in an amount required to provide the final concentration of 0.5 to 25 μM) or a solvent as a control are added, and incubation is started at 37° C. 24 hours later, the culture medium is removed, and the lipid component is extracted with hexane/2-propanol (3:2, v/v) and applied onto thin-layer silica gel plates. After drying, each plate is eluted with a mixture of hexane, diethyl ether, and acetic acid in a ratio of 83:16:1. The plates are photoexposed on imaging plates and analyzed using BAS-2500 (FUJIFILM). The amounts of light exposure of the areas corresponding to the cholesteryl ester are calculated. Background is measured using a blank space of the plate. Inhibition rates are calculated using values obtained by subtracting the background values from both values of the control and the test sample, respectively, in accordance with the following equation. A test value is calculated as a percentage (%) with respect to the control.
In the Equation 1, A is the control group, BG is a background, and B is the test compound.
The following results were obtained from the measurement by this method on cholesterol absorption inhibitory activity of the compounds of the present invention. The following results were obtained by the evaluation using concentrations of 10 μM and/or 12.5 μM.

The subject of experiment [2] is hamsters fed a high cholesterol diet. Briefly: Measurement of lipid lowering effect in hamsters fed a high cholesterol diet. The class given is in vivo, Male Golden Syrian hamsters. Conditions: Mesocricetus auratus, po, 168 h, gavage once daily, 7 days. In short, it runs like this: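 Male Golden Syrian hamsters (6/group) on 0.5% cholesterol diet, dosed by gavage once daily in corn oil at 0.01 to 10 mg/kg; serum and liver sampled 4 h after last dose. TC, TG and LDL-C measured enzymatically; effects expressed as % suppression versus control and normal-diet groups.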

Where [3] appears, read: read-out: liver TC lowering effect (suppression rate of an increase in liver TC concentration).
The mark [4] stands for this setting: read-out: serum TC lowering effect (suppression rate of an increase in serum TC concentration).
The mark [5] stands for this setting: read-out: serum LDL-C lowering effect (suppression rate of an increase in serum LDL-C concentration).
The mark [6] stands for this setting: read-out: serum TG lowering effect (serum TG lowering rate).

Where two headings read alike, the source gives them in different places.

In the case of `O=C1[C@H](SC[C@H](O)c2ccc(Cl)c(Cl)c2)[C@@H](c2ccc(O)cc2)N1c1ccc(-c2cccnc2)cc1` [Example 28, (3R,4R)-3-[(2R)-2-(3,4-dichlorophenyl)-2-hydroxyethylthio]-4-(4-hydroxyphenyl)-1-[4-(pyridin-3-yl)phenyl]azetidin-2-one], the inhibition at 10 µM in experiment [1] was not below 50%. The inhibition in vivo at 0.1 mg/kg in experiment [2] (setting [3]) and in experiment [2] (setting [4]) was not below 50% in each case.
Take `O=C1[C@H](SC[C@H](O)c2ccc(F)cc2)[C@@H](c2ccc(O)cc2)N1c1ccc(-c2cccnc2Cl)cc1` [Example 15, (3R,4R)-3-[(2R)-2-(4-fluorophenyl)-2-hydroxyethylthio]-1-[4-(2-chloropyridin-3-yl)phenyl]-4-(4-hydroxyphenyl)azetidin-2-one]: the inhibition at 10 µM in experiment [1] was not below 50%. Moreover, the figures for the inhibition in vivo at 0.1 mg/kg in experiment [2] (setting [5]) and in experiment [2] (setting [6]) were not below 50% and not below 20%, respectively.
Regarding `O=C1[C@H](SC[C@H](O)c2ccc(Cl)cc2)[C@@H](c2ccc(O)cc2)N1c1ccc(-c2cncc(C(F)(F)F)c2)cc1` [Example 86, (3R,4R)-3-[(2R)-2-(4-chlorophenyl)-2-hydroxyethylthio]-4-(4-hydroxyphenyl)-1-[4-(5-trifluoromethylpyridin-3-yl)phenyl]azetidin-2-one], in experiment [1], the inhibition at 12.5 µM is not below 60%. In addition, the inhibition in vivo at 0.01 mg/kg in experiment [2] (setting [5]) is not below 30%.
As to `COc1cncc(-c2ccc(N3C(=O)[C@H](SC[C@H](O)c4ccc(F)cc4)[C@H]3c3ccc(O)cc3)cc2)c1` [Example 50, (3R,4R)-3-[(2R)-2-(4-fluorophenyl)-2-hydroxyethylthio]-4-(4-hydroxyphenyl)-1-[4-(5-methoxypyridin-3-yl)phenyl]azetidin-2-one], the inhibition at 10 µM in experiment [1] is not below 50%. Further, the inhibition in vivo at 0.1 mg/kg was not below 50% in experiment [2] (setting [4]) and not below 20% in experiment [2] (setting [6]).
As to `O=C1[C@H](SC[C@H](O)c2ccc(F)cc2)[C@@H](c2ccc(O)cc2Cl)N1c1ccc(-c2cccnc2)cc1` [Example 59, (3R,4R)-3-[(2R)-2-(4-fluorophenyl)-2-hydroxyethylthio]-4-(2-chloro-4-hydroxyphenyl)-1-[4-(pyridin-3-yl)phenyl]azetidin-2-one], the inhibition at 12.5 µM in experiment [1] was not below 60%. For the same compound, in experiment [2] (setting [4]), the inhibition in vivo at 0.01 mg/kg is not below 30%. The inhibition in vivo at 0.1 mg/kg in experiment [2] (setting [3]) was not below 50%; in experiment [2] (setting [6]) it was not below 20%.
For the compound `O=C1[C@H](SC[C@H](O)c2ccc(Cl)c(F)c2)[C@@H](c2ccc(O)cc2)N1c1ccc(-c2cccnc2)cc1` [Example 81, (3R,4R)-3-[(2R)-2-(4-chloro-3-fluorophenyl)-2-hydroxyethylthio]-4-(4-hydroxyphenyl)-1-[4-(pyridin-3-yl)phenyl]azetidin-2-one], the inhibition at 12.5 µM in experiment [1] was not below 60%. The inhibition in vivo at 0.1 mg/kg in experiment [2] (setting [5]) and in experiment [2] (setting [4]) was not below 50% each time.
Take `CN(C)c1ccc(-c2ccc(N3C(=O)[C@H](SC[C@H](O)c4ccc(F)cc4)[C@H]3c3ccc(O)cc3)cc2)cn1` [Example 22, (3R,4R)-3-[(2R)-2-(4-fluorophenyl)-2-hydroxyethylthio]-1-[4-(6-dimethylaminopyridin-3-yl)phenyl]-4-(4-hydroxyphenyl)azetidin-2-one]: in experiment [1], the inhibition at 10 µM is not below 50% and the inhibition at 12.5 µM was not below 60%. Also, the inhibition in vivo at 0.01 mg/kg in experiment [2] (setting [3]) is not below 30%. In addition, in experiment [2] (setting [5]), the inhibition in vivo at 0.01 mg/kg is not below 30% and the inhibition in vivo at 0.1 mg/kg was not below 50%. Moreover, the inhibition in vivo at 0.1 mg/kg in experiment [2] (setting [4]) is not below 50%.
With `COc1ccc(-c2ccc(N3C(=O)[C@H](SC[C@H](O)c4ccc(F)cc4)[C@H]3c3ccc(O)cc3)cc2)c(OC)n1` [Example 7, (3R,4R)-3-[(2R)-2-(4-fluorophenyl)-2-hydroxyethylthio]-1-[4-(2,6-dimethoxypyridin-3-yl)phenyl]-4-(4-hydroxyphenyl)azetidin-2-one], the inhibition at 10 µM in experiment [1] was not below 50%. Further, the inhibition in vivo at 0.1 mg/kg in experiment [2] (setting [6]) was not below 20%.
Regarding `O=C1[C@H](SC[C@H](O)c2ccc(F)cc2)[C@@H](c2ccc(O)cc2)N1c1ccc(-c2cccc3[nH]ccc23)cc1` [Example 13, (3R,4R)-3-[(2R)-2-(4-fluorophenyl)-2-hydroxyethylthio]-4-(4-hydroxyphenyl)-1-[4-(indol-4-yl)phenyl]azetidin-2-one], the inhibition at 10 µM in experiment [1] was not below 50%.
As for `O=C1[C@H](SCCc2ccccc2)[C@@H](c2ccc(O)cc2)N1c1ccc(-c2cccnc2)cc1` [Example 4, (3R,4R)-4-(4-hydroxyphenyl)-3-(2-phenylethylthio)-1-[4-(pyridin-3-yl)phenyl]azetidin-2-one], in experiment [1], the inhibition at 10 µM is not below 50% and the inhibition at 12.5 µM is not below 60%.
Turning to `O=C1[C@H](SC[C@H](O)c2ccc(F)cc2)[C@@H](c2ccc(O)cc2)N1c1ccc(-c2cccnc2F)cc1` [Example 21, (3R,4R)-3-[(2R)-2-(4-fluorophenyl)-2-hydroxyethylthio]-1-[4-(2-fluoropyridin-3-yl)phenyl]-4-(4-hydroxyphenyl)azetidin-2-one], in experiment [1], the inhibition at 10 µM is not below 50%.
Consider `COc1ncccc1-c1ccc(N2C(=O)[C@H](SC[C@H](O)c3ccc(Cl)cc3)[C@H]2c2ccc(O)cc2)cc1` [Example 57, (3R,4R)-3-[(2R)-2-(4-chlorophenyl)-2-hydroxyethylthio]-4-(4-hydroxyphenyl)-1-[4-(2-methoxypyridin-3-yl)phenyl]azetidin-2-one], for which, in experiment [1], the inhibition at 10 µM is not below 50% and the inhibition at 12.5 µM is not below 60%.
Turning to `COc1ccc(CS[C@H]2C(=O)N(c3ccc(-c4cccnc4)cc3)[C@@H]2c2ccc(O)cc2)cc1` [Example 19, (3R,4R)-4-(4-hydroxyphenyl)-3-[(4-methoxyphenyl)methylthio]-1-[4-(pyridin-3-yl)phenyl]azetidin-2-one], the inhibition at 10 µM in experiment [1] was not below 50%.
The same measure, in the same setting: for `O=C1[C@H](SC[C@H](O)c2ccc(F)cc2)[C@@H](c2ccc(O)c(O)c2)N1c1ccc(-c2cccnc2)cc1` [Example 37, (3R,4R)-3-[(2R)-2-(4-fluorophenyl)-2-hydroxyethylthio]-4-(3,4-dihydroxyphenyl)-1-[4-(pyridin-3-yl)phenyl]azetidin-2-one] the value was not below 50%; for `O=C1[C@H](SC[C@H](O)c2ccc3c(c2)OCCO3)[C@@H](c2ccc(O)cc2)N1c1ccc(-c2cccnc2)cc1` [Example 29, (3R,4R)-3-[(2R)-2-(2H,3H-benzo[3,4-e]1,4-dioxin-6-yl)-2-hydroxyethylthio]-4-(4-hydroxyphenyl)-1-[4-(pyridin-3-yl)phenyl]azetidin-2-one], not below 50%.
As to `O=C1[C@H](SC[C@H](O)c2ccc(F)cc2)[C@@H](c2ccc(O)cc2)N1c1ccc(-c2cccnc2)cc1` [Example 1, (3R,4R)-3-[(2R)-2-(4-fluorophenyl)-2-hydroxyethylthio]-4-(4-hydroxyphenyl)-1[4-(pyridin-3-yl)phenyl]azetidin-2-one], in experiment [1], the inhibition at 12.5 µM is not below 60%.
Turning to `Cc1ncccc1-c1ccc(N2C(=O)[C@H](SC[C@H](O)c3ccc(F)cc3)[C@H]2c2ccc(O)cc2)cc1` [Example 54, (3R,4R)-3-[(2R)-2-(4-fluorophenyl)-2-hydroxyethylthio]-4-(4-hydroxyphenyl)-1-[4-(2-methylpyridin-3-yl)phenyl]azetidin-2-one], the inhibition at 10 µM in experiment [1] is not below 50%.
The same measure, in the same setting: for `Cc1cc(N2C(=O)[C@H](SC[C@H](O)c3ccc(F)cc3)[C@H]2c2ccc(O)cc2)ccc1-c1cccnc1` [Example 47, (3R,4R)-3-[(2R)-2-(4-fluorophenyl)-2-hydroxyethylthio]-4-(4-hydroxyphenyl)-1-[3-methyl-4-(pyridin-3-yl)phenyl]azetidin-2-one] the value was not below 50%.
As for `CC(=O)c1cncc(-c2ccc(N3C(=O)[C@H](SC[C@H](O)c4ccc(Cl)cc4)[C@H]3c3ccc(O)cc3)cc2)c1` [Example 105, (3R,4R)-3-[(2R)-2-(4-chlorophenyl)-2-hydroxyethylthio]-1-[4-(5-acetylpyridin-3-yl)phenyl]-4-(4-hydroxyphenyl)azetidin-2-one], in experiment [1], the inhibition at 12.5 µM is not below 60%.

The values above are taken from patent US20100125059A1, “1-BIARYLAZETIDINONE DERIVATIVE” (Teijin Pharma Limited, priority 2007, published 2010).
